Laboratory results from patent US9029376B2, “Small molecule inhibitors for the treatment or prevention of dengue virus infection” (Siga Technologies, Inc., priority 2008, dated 2015).

Tested on: Dengue-2 (Strain New Guinea C)
Assay: Dengue-2 viral yield assay in Vero cells
Format: cell-based
Details: Dengue virus, Vero, 48 h, read-out: Activity (anti-dengue 2 viral activity, EC50)
Protocol: Compounds that were active in the primary screen were tested for activity in viral yield assays. […] Vero cells in 12-well plates were infected with dengue-2 virus at a multiplicity of infection (MOI) of 0.1, treated with compound (or DMSO as a control), incubated at 37° C., harvested 48 hours post infection and titered on Vero cells as described above. The EC50 was calculated through ExcelFit. Those compounds with activity below 1 μM are indicated with “A”, those with activity between 1 and 10 μM are indicated with “B”, and those with activity between 10 and 25 μM with “C”.

Structure (SMILES) | EC50
NC(=O)C1(N2CCCCC2)CCN(C(=O)CSc2nc3ccccc3s2)CC1 [Compound 9, 1′-[2-(Benzothiazol-2-ylsulfanyl)-acetyl]-[1,4′]bipiperidinyl-4′-carboxylic acid amide] | 1 to 10 µM
O=C(CSc1nc2ccccc2o1)N1CCN(c2ccccc2)CC1 [Compound 76, 2-(Benzooxazol-2-ylsulfanyl)-1-(4-phenyl-piperazin-1-yl)-ethanone] | > 25 µM
COc1ccccc1C(=O)Nc1ccc2nc(SCC(=O)N3CCOCC3)sc2c1 [Compound 28, 2-Methoxy-N-[2-(2-morpholin-4-yl-2-oxo-ethylsulfanyl)-benzothiazol-6-yl]-benzamide] | > 25 µM
O=C(Nc1ccc2nc(SCC(=O)N3CCOCC3)sc2c1)c1ccccc1Br [Compound 20, 2-Bromo-N-[2-(2-morpholin-4-yl-2-oxo-ethylsulfanyl)-benzothiazol-6-yl]-benzamide] | > 25 µM
CCOc1ccc2nc(SCC(=O)N3CCc4ccccc4C3)sc2c1 [Compound 7, 1-(3,4-Dihydro-1H-isoquinolin-2-yl)-2-(6-ethoxy-benzothiazol-2-ylsulfanyl)-ethanone] | 1 to 10 µM
O=C(CSc1nc2ccccc2[nH]1)N1CCN(c2ccc(F)cc2)CC1 [Compound 8, 2-(1H-Benzoimidazol-2-ylsulfanyl)-1-[4-(4-fluoro-phenyl)-piperazin-1-yl]-ethanone] | 1 to 10 µM
Nc1ccc2nc(SCC(=O)N3CCCC3)sc2c1 [Compound 59, 2-(6-Amino-benzothiazol-2-ylsulfanyl)-1-pyrrolidin-1-yl-ethanone] | > 25 µM
CC1CCN(C(=O)CSc2nc3ccccc3[nH]2)CC1 [Compound 44, 2-(1H-Benzoimidazol-2-ylsulfanyl)-1-(4-methyl-piperidin-1-yl)-ethanone] | > 25 µM
NC(=O)C1CCN(C(=O)CSc2nc3ccccc3s2)CC1 [Compound 66, 1-[2-(Benzothiazol-2-ylsulfanyl)-acetyl]-piperidine-4-carboxylic acid amide] | > 25 µM
O=C(CSc1nc2ccccc2o1)N1CCN(c2ccc(Cl)cc2)CC1 [Compound 80, 2-(Benzooxazol-2-ylsulfanyl)-1-[4-(4-chloro-phenyl)-piperazin-1-yl]-ethanone] | > 25 µM
O=C(CSc1nc2cc(Cl)ccc2o1)N1CCOCC1 [Compound 74, 2-(5-Chloro-benzooxazol-2-ylsulfanyl)-1-morpholin-4-yl-ethanone] | > 25 µM
O=C1CC(N2CCN(c3nc4ccccc4s3)CC2)C(=O)N1c1ccc(F)cc1 (centres unmarked) [Compound 60, 3-(4-Benzothiazol-2-yl-piperazin-1-yl)-1-(4-fluoro-phenyl)-pyrrolidine-2,5-dione] | > 25 µM
CCC(=O)Nc1ccc2nc(SCC(=O)N3CCN(c4ccccc4)CC3)sc2c1 [Compound 54, N-{2-[2-oxo-2-(4-phenyl-piperazin-1-yl)-ethylsulfanyl]-benzothiazol-6-yl}-propionamide] | > 25 µM
NC(=O)C1CCN(C(=O)CSc2nc3ccccc3[nH]2)CC1 [Compound 68, 1-[2-(1H-Benzoimidazol-2-ylsulfanyl)-acetyl]-piperidine-4-carboxylic acid amide] | > 25 µM

Same assay, conditions: Dengue virus; Dengue-2 strain New Guinea C, Vero cells, MOI 0.1, harvested 48 hours post infection, viral yield; read-out: Activity (anti-dengue 2 viral activity, EC50)

Structure (SMILES) | EC50
O=C(CSc1nc2ccc([N+](=O)[O-])cc2s1)N1CCN(c2cccc(Cl)c2)CC1 [Compound 73, 1-[4-(3-Chloro-phenyl)-piperazin-1-yl]-2-(6-nitro-benzothiazol-2-ylsulfanyl)-ethanone] | > 25 µM
NC(=O)C1CCN(C(=O)CSc2nc3ccccc3o2)CC1 [Compound 67, 1-[2-(Benzooxazol-2-ylsulfanyl)-acetyl]-piperidine-4-carboxylic acid amide] | > 25 µM
O=C(CSc1nc2ccc(/N=C/c3ccc(Cl)cc3)cc2s1)N1CCOCC1 [Compound 18, 2-(6-{[1-(4-Chloro-phenyl)-meth-(E)-ylidene]-amino}-benzothiazol-2-ylsulfanyl)-1-morpholin-4-yl-ethanone] | > 25 µM
O=C(CSc1nc2ccc(/N=C/c3c(Cl)cccc3Cl)cc2s1)N1CCOCC1 [Compound 24, 2-(6-{[1-(2,6-Dichloro-phenyl)-meth-(E)-ylidene]-amino}-benzothiazol-2-ylsulfanyl)-1-morpholin-4-yl-ethanone] | > 25 µM
O=C(CSc1nc2ccccc2o1)N1CCc2ccccc2C1 [Compound 47, 2-(Benzooxazol-2-ylsulfanyl)-1-(3,4-dihydro-1H-isoquinolin-2-yl)-ethanone] | > 25 µM
O=C(CSc1nc2ccccc2s1)N1CCN(c2nc3ccccc3s2)CC1 [Compound 50, 1-(4-Benzothiazol-2-yl-piperazin-1-yl)-2-(benzothiazol-2-ylsulfanyl)-ethanone] | > 25 µM
Cc1cccc(C)c1NC(=O)Cn1c(SCC(N)=O)nc2ccccc21 [Compound 79, 2-{1-[(2,6-Dimethyl-phenylcarbamoyl)-methyl]-1H-benzoimidazol-2-ylsulfanyl}-acetamide] | > 25 µM
Cn1c(SCC(=O)N2CCc3ccccc3C2)nc2ccccc21 [Compound 81, 1-(3,4-Dihydro-1H-isoquinolin-2-yl)-2-(1-methyl-1H-benzoimidazol-2-ylsulfanyl)-ethanone] | > 25 µM
O=C(Nc1ccc2nc(SCC(=O)N3CCOCC3)sc2c1)c1ccccc1F [Compound 27, 2-Fluoro-N-[2-(2-morpholin-4-yl-2-oxo-ethylsulfanyl)-benzothiazol-6-yl]-benzamide] | > 25 µM
Cc1ccccc1C(=O)Nc1ccc2nc(SCC(=O)N3CCOCC3)sc2c1 [Compound 5, 2-Methyl-N-[2-(2-morpholin-4-yl-2-oxo-ethylsulfanyl)-benzothiazol-6-yl]-benzamide] | 1 to 10 µM
Cc1ccc(C(=O)Nc2ccc3nc(SCC(=O)N4CCCCC4)sc3c2)cc1 [Compound 56, 4-Methyl-N-[2-(2-oxo-2-piperidin-1-yl-ethylsulfanyl)-benzothiazol-6-yl]-benzamide] | > 25 µM
Cn1c(Cc2cccc3ccccc23)nnc1SCC(=O)Nc1ccc2nc(SCC(=O)N3CCOCC3)sc2c1 [Compound 36, 2-(4-Methyl-5-naphthalen-1-ylmethyl-4H-[1,2,4]triazol-3-ylsulfanyl)-N-[2-(2-morpholin-4-yl-2-oxo-ethylsulfanyl)-benzothiazol-6-yl]-acetamide] | > 25 µM
O=C(Nc1ccc2nc(SCC(=O)N3CCCC3)sc2c1)c1ccccc1Br [Compound 65, 2-Bromo-N-[2-(2-oxo-2-pyrrolidin-1-yl-ethylsulfanyl)-benzothiazol-6-yl]-benzamide] | > 25 µM
O=C(CSc1nc2ccc([N+](=O)[O-])cc2s1)N1CCCCC1 [Compound 49, 2-(6-Nitro-benzothiazol-2-ylsulfanyl)-1-piperidin-1-yl-ethanone] | > 25 µM
O=C(CSc1nc2ccc(/N=C/c3c4ccccc4cc4ccccc34)cc2s1)N1CCOCC1 [Compound 19, 2-(6-{[1-Anthracen-9-yl-meth-(E)-ylidene]-amino}-benzothiazol-2-ylsulfanyl)-1-morpholin-4-yl-ethanone] | > 25 µM
O=C(Nc1ccc2nc(SCC(=O)N3CCCC3)sc2c1)c1ccc(Cl)cc1 [Compound 58, 4-Chloro-N-[2-(2-oxo-2-pyrrolidin-1-yl-ethylsulfanyl)-benzothiazol-6-yl]-benzamide] | > 25 µM
O=C(Cc1cccc2ccccc12)Nc1ccc2nc(SCC(=O)N3CCOCC3)sc2c1 [Compound 38, N-[2-(2-Morpholin-4-yl-2-oxo-ethylsulfanyl)-benzothiazol-6-yl]-2-naphthalen-1-yl-acetamide] | > 25 µM
O=C(CSc1nc2ccccc2[nH]1)N1CCCCCC1 [Compound 43, 1-Azepan-1-yl-2-(1H-benzoimidazol-2-ylsulfanyl)-ethanone] | > 25 µM
O=C(CSc1nc2ccc(/N=C/c3ccc(Sc4nnnn4-c4ccccc4)o3)cc2s1)N1CCOCC1 [Compound 23, 1-Morpholin-4-yl-2-(6-{[1-[5-(1-phenyl-1H-tetrazol-5-ylsulfanyl)-furan-2-yl]-meth-(E)-ylidene]-amino}-benzothiazol-2-ylsulfanyl)-ethanone] | > 25 µM
O=C(CSc1nnc(-c2ccccc2)n1-c1ccccc1)Nc1ccc2nc(SCC(=O)N3CCOCC3)sc2c1 [Compound 35, 2-(4,5-Diphenyl-4H-[1,2,4]triazol-3-ylsulfanyl)-N-[2-(2-morpholin-4-yl-2-oxo-ethylsulfanyl)-benzothiazol-6-yl]-acetamide] | > 25 µM
O=C(CSc1nc2ccccc2[nH]1)N1CCCC1 [Compound 45, 2-(1H-Benzoimidazol-2-ylsulfanyl)-1-pyrrolidin-1-yl-ethanone] | > 25 µM
O=C(CSc1nc2ccccc2n1-c1ccccc1)N1CCN(c2ccccc2)CC1 [Compound 51, 2-(1-Phenyl-1H-benzoimidazol-2-ylsulfanyl)-1-(4-phenyl-piperazin-1-yl)-ethanone] | > 25 µM
CCN(CC)C(=O)CSc1nc2cc(C)ccc2[nH]1 [Compound 62, N,N-Diethyl-2-(5-methyl-1H-benzoimidazol-2-ylsulfanyl)-acetamide] | > 25 µM
O=C(CSc1nc2ccccc2o1)N1CCN(Cc2ccccc2)CC1 [Compound 11, 2-(Benzooxazol-2-ylsulfanyl)-1-(4-benzyl-piperazin-1-yl)-ethanone] | 1 to 10 µM
O=C(CSc1nc2ccccc2s1)N1CCN(c2ccc(F)cc2)CC1 [Compound 71, 2-(Benzothiazol-2-ylsulfanyl)-1-[4-(4-fluoro-phenyl)-piperazin-1-yl]-ethanone] | > 25 µM
CCC(=O)Nc1ccc2nc(SCC(=O)N3CCCCC3)sc2c1 [Compound 2, N-[2-(2-oxo-2-piperidin-1-yl-ethylsulfanyl)-benzothiazol-6-yl]-propionamide] | < 1 µM
Cc1ccc(-c2nnc(N3CCN(C(=O)CSc4nc5ccccc5o4)CC3)c3ccccc23)cc1 [Compound 78, 2-(Benzooxazol-2-ylsulfanyl)-1-[4-(4-p-tolyl-phthalazin-1-yl)-piperazin-1-yl]-ethanone] | > 25 µM
